Residues, ends and D or L forms follow the SMILES beside them. *: point of attachment. AMC = Cc1cc(=O)oc2cc(N*)ccc12; Boc = CC(C)(C)OC(=O)*
How the values were obtained:
prostasin = settings: cited from earlier work
[1] = biological target: Recombinant Human TMPRSS2 (Homo sapiens, UniProt O15393); test: TMPRSS2 fluorogenic biochemical assay
[2] = cited from earlier work
TMPRSS2 (aa 148–492) = settings: TMPRSS2 biochemical screen; cited from earlier work
[3] = system: SARS-CoV-2-S-mediated pseudotyped particle entry; settings: cited from earlier work
SARS-CoV = settings: mouse, in vivo; cited from earlier work
trypsin = settings: cited from earlier work

Sequence of Recombinant Human TMPRSS2 (O15393 106-492): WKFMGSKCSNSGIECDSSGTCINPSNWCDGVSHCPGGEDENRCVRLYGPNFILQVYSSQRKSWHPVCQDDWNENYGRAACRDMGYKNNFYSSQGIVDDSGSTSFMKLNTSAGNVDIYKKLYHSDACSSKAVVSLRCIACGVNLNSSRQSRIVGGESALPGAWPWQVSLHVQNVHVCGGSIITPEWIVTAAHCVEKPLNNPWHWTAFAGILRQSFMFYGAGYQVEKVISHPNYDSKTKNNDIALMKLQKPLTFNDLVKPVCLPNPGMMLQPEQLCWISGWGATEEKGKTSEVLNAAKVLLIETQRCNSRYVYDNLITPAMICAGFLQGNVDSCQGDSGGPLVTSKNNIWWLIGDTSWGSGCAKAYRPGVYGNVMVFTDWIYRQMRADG

For `N=C(N)Nc1ccc(C(=O)O)cc1` [4-guanidinobenzoic acid], the inhibition of prostasin (prostasin) is listed as “do not inhibit”.

For `N=C(N)c1ccc2cc(O)ccc2c1` [6-amidino-2-naphthol], the inhibition of prostasin (prostasin) is listed as “do not inhibit”.

For `Cc1cc(=O)oc2cc(NC(=O)[C@H](CCCNC(=N)N)NC(=O)[C@H](C)NC(=O)[C@H](CCC(N)=O)NC(=O)OC(C)(C)C)ccc12` [Boc-Gln-Ala-Arg-AMC] (Boc-Gln-Ala-Arg-{AMC}), the “released AMC” value ([1]; 60 min, peptide 10 μM, TMPRSS2 1 μM, Tris-HCl pH8) was 27%.

For `N=C(N)Nc1ccc(C(=O)Oc2ccc(CC(=O)O)cc2)cc1` [FOY-251, 4-(4-guanidinobenzoyloxy)phenylacetic acid], the mean terminal half-life [2] is given as 60 min.

For `Nc1c(Br)cc(Br)cc1CN[C@H]1CC[C@H](O)CC1` [ambroxol], the TMPRSS2 inhibition ([1]; 40 μM, data not shown) was “did not show any TMPRSS2 inhibition”.

In the case of `CN(Cc1cc(Br)cc(Br)c1N)C1CCCCC1` [bromhexine], the IC50 (TMPRSS2 (aa 148–492)) is listed as 750 nM, the “inhibition of TMPRSS2” value ([1]; dose–response, listed as Bromhexine hydrochloride) is listed as “no inhibition” and the “inhibition of pseudotyped particle entry” value [3] is listed as “lack of inhibiting SARS-CoV-2-S-mediated pseudotyped particle entry”.

For `CN(C)C(=O)COC(=O)Cc1ccc(OC(=O)c2ccc(NC(=N)N)cc2)cc1` [camostat], the “t1/2 of hydrolysis in plasma” value ([2]; plasma) is listed as < 1 min, the SARS-CoV pathogenesis (SARS-CoV) is listed as “mitigated SARS-CoV pathogenesis” and the IC50 (trypsin) is listed as ~50 nM.

For `N=C(N)c1ccc2cc(OC(=O)c3ccc(N=C(N)N)cc3)ccc2c1` [nafamostat], the “plasma half-life (t1/2)” value ([2]; IV infusion) is listed as “about 23 min”.
